≈ marks a conversion by molar mass, not a printed value.
Tests used:
Test in all cases: MIC, agar dilution method
Type in all cases: cell-based
[1] = test system: Malassezia furfur DSM 6171; conditions: DSM6171, Mueller-Hinton agar + 3% Tween 80, 72 h at 30° C.
Description: (§1) Petri dishes 9.0 cm in diameter were charged with 13.5 ml freshly prepared Mueller-Hinton agar (Merck, Ref. 1.05437 or Wilkins-Chalgren agar boullion, Oxoid, Ref. CM 643, supplemented with log agar-agar/liter) kept liquid at 50° C., to which the various concentrations of the diluted samples were added in 10% (V/V)=1.5 ml. Mueller-Hinton agar that contained 3% Tween80 (Merck, Ref. 8.22 187) was used for the test germ Malassezia furfur. In each case 5 ml of the samples were diluted in distilled water and made up to 10 ml. The further test concentrations of the particular dilution series, which were prepared in the form of geometric series, were prepared by progressive 1:2 dilution of this batch with distilled water. […] Two agar plates were poured per test concentration and nutrient medium. After solidification and drying (approx. 1 h at 37° C.), the test plates were inoculated in point form with, in each case, 1 μl of the test germ suspensions listed below. To check purity and identity the bacteria that grow aerobically (Brevibacterium epidermidis, Corynebacterium xerosis, Staphylococcus epidermidis) were [lacuna] on Columbia blood agar (BioMérieux, Ref. 43049). The mould Aspergillus niger, the yeast Candida albicans and the two skin fungi Trichophyton mentagrophytes and Epidermophyton floccosum were cultured on Sabouraud agar (BioMérieux, Ref. 43555). Malassezia furfur was cultured on Sabourad HLT agar with disinhibitors (addition of 3% Tween80: 1%; lecithin: 0.3%; histidine: 0.1%; Merck, Ref. 1.18368). Propionibacterium acnes was cultured on Schaedler agar (BioMérieux, Ref. 43273). Further details on the test germs can be taken from Table 5. For preparation of the other test germ suspensions, the test strains were cultured on the abovementioned solid nutrient medium, harvested using sterile swabs and taken up or diluted in such an amount of Mueller-Hinton broth that the turbidity of the suspensions corresponded to McFarland standard 0.5. All test germ suspensions with the exception of Propionibacterium acnes were diluted again 1:10 with sterile broth and the germ count thereof was determined by the surface method using a Spiralometer (results: see Table 5). The MIC (minimum inhibitory concentration) was regarded as the lowest concentration of active compound at which macroscopically there is no growth. Minimal, barely visible growth or few small individual colonies were evaluated as inhibition.

[2] = test system: Epidermophyton floccosum CBS 55384; conditions: CBS55384, Mueller-Hinton agar, 18 h at 36° C.
Description: as §1

[3] = test system: Trichophyton mentagrophytes CBS 26379; conditions: CBS26379, Mueller-Hinton agar, 72 h at 30° C.
Description: as §1

[4] = test system: Brevibacterium epidermidis ATCC 35514; conditions: ATCC35514, Mueller-Hinton agar, 18 h at 36° C.
Description: (§2) Petri dishes 9.0 cm in diameter were charged with 13.5 ml freshly prepared Mueller-Hinton agar (Merck, Ref. 1.05437 or Wilkins-Chalgren agar boullion, Oxoid, Ref. CM 643, supplemented with log agar-agar/liter) kept liquid at 50° C., to which the various concentrations of the diluted samples were added in 10% (V/V)=1.5 ml. Mueller-Hinton agar that contained 3% Tween80 (Merck, Ref. 8.22 187) was used for the test germ Malassezia furfur. In each case 5 ml of the samples were diluted in distilled water and made up to 10 ml. The further test concentrations of the particular dilution series, which were prepared in the form of geometric series, were prepared by progressive 1:2 dilution of this batch with distilled water. […] Two agar plates were poured per test concentration and nutrient medium. After solidification and drying (approx. 1 h at 37° C.), the test plates were inoculated in point form with, in each case, 1 μl of the test germ suspensions listed below. To check purity and identity the bacteria that grow aerobically (Brevibacterium epidermidis, Corynebacterium xerosis, Staphylococcus epidermidis) were [lacuna] on Columbia blood agar (BioMérieux, Ref. 43049). The mould Aspergillus niger, the yeast Candida albicans and the two skin fungi Trichophyton mentagrophytes and Epidermophyton floccosum were cultured on Sabouraud agar (BioMérieux, Ref. 43555). Malassezia furfur was cultured on Sabourad HLT agar with disinhibitors (addition of 3% Tween80: 1%; lecithin: 0.3%; histidine: 0.1%; Merck, Ref. 1.18368). Propionibacterium acnes was cultured on Schaedler agar (BioMérieux, Ref. 43273). Further details on the test germs can be taken from Table 5. The preparation of the test germ suspensions of the bacterial germs that grow aerobically was carried out by incubation of Mueller-Hinton broth (Merck, Ref. 1.10293) which had been inoculated with a few individual colonies of the relevant test germs, at 36° C. After a distinct turbidity had been obtained, sterile nutrient broth was added to the suspensions in such an amount that the turbidity thereof corresponded to McFarland standard 0.5 (approx. 1.5×10^8 CFU/ml). All test germ suspensions with the exception of Propionibacterium acnes were diluted again 1:10 with sterile broth and the germ count thereof was determined by the surface method using a Spiralometer (results: see Table 5). The MIC (minimum inhibitory concentration) was regarded as the lowest concentration of active compound at which macroscopically there is no growth. Minimal, barely visible growth or few small individual colonies were evaluated as inhibition.

[5] = test system: Corynebacterium xerosis ATCC 7711; conditions: ATCC7711, Mueller-Hinton agar, 18 h at 36° C.
Description: as §2

[6] = test system: Staphylococcus epidermidis ATCC 12228; conditions: ATCC12228, Mueller-Hinton agar, 18 h at 36° C.
Description: as §2

| Structure (SMILES) | MIC [1] | MIC [2] | MIC [3] | MIC [4] | MIC [5] | MIC [6] |
| --- | --- | --- | --- | --- | --- | --- |
| CCCCC(O)CO (stereo not drawn) [HE3, 1,2-hexanediol] | 12500 µg/mL | 6250 µg/mL (≈ 52.9 mM) | 6300 µg/mL (≈ 53.3 mM) | 25000 µg/mL (≈ 212 mM) | 12500 µg/mL (≈ 106 mM) | 25000 µg/mL (≈ 212 mM) |
| CCCCCCC(O)CO (stereo not drawn) [OC3, 1,2-octanediol] | 50000 µg/mL | 3120 µg/mL (≈ 21.4 mM) | 1560 µg/mL (≈ 10.7 mM) | 3120 µg/mL (≈ 21.4 mM) | 6250 µg/mL (≈ 42.7 mM) | 12500 µg/mL (≈ 85.5 mM) |

— patent US7582681B2, “Synergistic mixtures of 1,2-alkane diols” (Symrise GmbH & Co. KG, priority 2002, dated 2009)
